One series addresses CYP1A2 (Homo sapiens, UniProt P05177). The series can be described thus: Inhibition of CYP1A2. The note with it: 50 μM phenacetin.
For series [1], the target named is T1, CYP2C19 (Homo sapiens, UniProt P33261). The following applies: fraction of substrate metabolized by the inhibited CYP pathway (CYP2C19); cited from earlier work.
Series [2] deals with T2, CYP2C9 (Homo sapiens, UniProt P11712). The note with it: fraction of substrate metabolized by the inhibited CYP pathway (CYP2C9); cited from earlier work.
Series [3] has as its target T2, CYP2C9. The note with it: AUCI/AUC with multiple doses of efavirenz (steady state Cmax); CYP2C9 substrates.
Series [4] concerns CYP2B6. The note with it: cited from earlier work.
The target of another series is CYP3A (Homo sapiens, UniProt P08684). The series can be described thus: Inhibition of CYP3A. The note with it: pooled human liver microsomes, pH 7.4, probe testosterone (6-β hydroxylation), 10 μM, inhibition of CYP3A activity, 50 μM efavirenz, pooled HLMs, 10 μM testosterone. The format is in vitro ADME.
Series [5] has as its target T3, CYP2C8 (Homo sapiens, UniProt P10632).
T3 sequence (P10632 1-490): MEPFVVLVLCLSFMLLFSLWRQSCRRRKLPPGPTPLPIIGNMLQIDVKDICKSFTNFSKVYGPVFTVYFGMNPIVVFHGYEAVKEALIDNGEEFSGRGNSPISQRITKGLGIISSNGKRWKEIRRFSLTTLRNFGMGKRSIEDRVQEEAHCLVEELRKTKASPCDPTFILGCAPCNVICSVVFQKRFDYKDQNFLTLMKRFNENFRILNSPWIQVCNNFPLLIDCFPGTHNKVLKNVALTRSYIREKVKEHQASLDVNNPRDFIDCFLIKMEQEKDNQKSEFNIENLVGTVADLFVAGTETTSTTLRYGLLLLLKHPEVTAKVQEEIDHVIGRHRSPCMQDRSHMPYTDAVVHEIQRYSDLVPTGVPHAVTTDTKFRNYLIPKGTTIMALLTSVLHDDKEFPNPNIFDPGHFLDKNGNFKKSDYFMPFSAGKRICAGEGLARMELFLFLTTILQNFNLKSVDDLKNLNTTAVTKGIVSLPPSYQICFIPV
The series can be described thus: in vitro. The following applies: microsomes, pH 7.4.

For another series, the target named is T4, CYP2A6 (Homo sapiens, UniProt P11509).
T4 sequence (P11509 1-494): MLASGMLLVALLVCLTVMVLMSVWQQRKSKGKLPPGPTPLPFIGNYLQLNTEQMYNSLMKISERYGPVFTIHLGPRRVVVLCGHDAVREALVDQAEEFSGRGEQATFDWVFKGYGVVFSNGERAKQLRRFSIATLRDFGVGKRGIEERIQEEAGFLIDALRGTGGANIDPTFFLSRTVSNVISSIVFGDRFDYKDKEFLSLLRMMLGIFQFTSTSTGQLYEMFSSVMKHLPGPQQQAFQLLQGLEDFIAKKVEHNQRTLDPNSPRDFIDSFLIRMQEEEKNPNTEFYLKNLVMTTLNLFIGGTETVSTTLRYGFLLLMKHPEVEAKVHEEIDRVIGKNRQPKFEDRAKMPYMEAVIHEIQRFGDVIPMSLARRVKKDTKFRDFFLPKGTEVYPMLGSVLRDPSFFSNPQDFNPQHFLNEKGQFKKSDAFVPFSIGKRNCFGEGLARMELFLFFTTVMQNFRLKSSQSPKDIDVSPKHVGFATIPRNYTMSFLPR
The series can be described thus: Inhibition of CYP2A6. The following applies: pooled human liver microsomes, pH 7.4, probe coumarin (7-hydroxylation). It counts as in vitro ADME.

In series [6] the target is T5, expressed CYP2B6 (Homo sapiens, UniProt P20813).
T5 sequence (P20813 1-491): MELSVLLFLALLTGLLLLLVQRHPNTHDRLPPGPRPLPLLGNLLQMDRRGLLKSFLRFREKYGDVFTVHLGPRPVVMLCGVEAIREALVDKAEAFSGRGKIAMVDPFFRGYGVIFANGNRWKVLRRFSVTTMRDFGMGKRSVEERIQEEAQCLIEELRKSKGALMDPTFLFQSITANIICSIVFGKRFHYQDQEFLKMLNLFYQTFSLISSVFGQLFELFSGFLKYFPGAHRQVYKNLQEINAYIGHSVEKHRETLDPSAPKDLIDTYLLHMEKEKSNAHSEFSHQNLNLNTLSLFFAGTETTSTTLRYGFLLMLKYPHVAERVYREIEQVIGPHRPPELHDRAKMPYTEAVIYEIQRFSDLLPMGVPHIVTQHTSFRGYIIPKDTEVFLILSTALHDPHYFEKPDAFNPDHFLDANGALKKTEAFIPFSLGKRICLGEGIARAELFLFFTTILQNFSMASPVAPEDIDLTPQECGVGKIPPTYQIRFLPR
The series can be described thus: Inhibition of expressed CYP2B6. It counts as in vitro ADME. The following applies: substrate bupropion.

In series [7] the target is T2, CYP2C9. The note with it: in vitro study; cited from earlier work.
The target in series [8] is T2, CYP2C9. The series can be described thus: Inhibition of CYP2C9. The format is in vitro ADME.
Series [9] deals with CYP isoforms (eight major CYPs except for CYP2B6). The series can be described thus: Time-dependent inhibition of CYP isoforms in pooled HLMs. It counts as in vitro ADME, human. The note with it: 50 μM efavirenz.
The target in series [10] is T6, CYP2B6 (Homo sapiens, UniProt P20813).
T6 sequence (P20813 1-491): T5 sequence (P20813 1-491)
The note with it: substrate bupropion.

The target in a further series is CYP2D6 (Homo sapiens, UniProt P10635). The series can be described thus: Inhibition of CYP2D6. The following applies: pooled human liver microsomes, pH 7.4, probe dextromethorphan (O-demethylation). It counts as in vitro ADME.
The nature of series [11]: Efavirenz plasma pharmacokinetics. The note with it: human, po, 600 mg. It counts as in vivo.
Series [12] deals with T1, CYP2C19. The series can be described thus: Inhibition of CYP2C19. It counts as in vitro ADME.
The test system of a further series is UGT2B7. The note with it: in vitro; cited from earlier work.
In series [13] the target is expressed CYP2B6. The following applies: cited from earlier work.
The conditions of series [14]: cited from earlier work.
In series [15] the test system is CYP2C8. The following applies: expressed CYPs; cited from earlier work.
The next series addresses T7, expressed CYP2C8 (Homo sapiens, UniProt P10632).
T7 sequence (P10632 1-490): T3 sequence (P10632 1-490)
The series can be described thus: Inhibition of expressed CYP2C8. It counts as in vitro ADME.

The target in series [16] is T3, CYP2C8. The series can be described thus: Inhibition of CYP2C8. The following applies: pooled HLMs; substrate amodiaquine.
The target of series [17] is T8, CYP2C8 (Homo sapiens, UniProt P10632, K399R/R139K).
T8 sequence (P10632 1-490 R139K/K399R): T3 sequence (P10632 1-490) with R139K, K399R
The series can be described thus: Inhibition of CYP2C8.

Where a chain is given by its changes, count along the chain named. Where two headings read alike, the source gives them in different places.

T1 sequence (P33261 whole entry): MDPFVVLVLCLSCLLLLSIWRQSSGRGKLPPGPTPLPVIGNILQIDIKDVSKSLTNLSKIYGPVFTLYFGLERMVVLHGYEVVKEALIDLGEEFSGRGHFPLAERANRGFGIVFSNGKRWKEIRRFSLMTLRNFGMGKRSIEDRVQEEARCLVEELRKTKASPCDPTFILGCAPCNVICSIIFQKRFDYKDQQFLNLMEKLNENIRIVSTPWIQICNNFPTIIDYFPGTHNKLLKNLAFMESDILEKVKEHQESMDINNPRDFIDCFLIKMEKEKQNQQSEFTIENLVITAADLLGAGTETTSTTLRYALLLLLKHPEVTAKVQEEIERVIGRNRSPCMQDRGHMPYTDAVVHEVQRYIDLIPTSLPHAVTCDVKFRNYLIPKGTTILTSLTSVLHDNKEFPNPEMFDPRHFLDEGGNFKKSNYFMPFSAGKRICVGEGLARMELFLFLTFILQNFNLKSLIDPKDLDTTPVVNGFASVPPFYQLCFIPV
T2 sequence (P11712 whole entry): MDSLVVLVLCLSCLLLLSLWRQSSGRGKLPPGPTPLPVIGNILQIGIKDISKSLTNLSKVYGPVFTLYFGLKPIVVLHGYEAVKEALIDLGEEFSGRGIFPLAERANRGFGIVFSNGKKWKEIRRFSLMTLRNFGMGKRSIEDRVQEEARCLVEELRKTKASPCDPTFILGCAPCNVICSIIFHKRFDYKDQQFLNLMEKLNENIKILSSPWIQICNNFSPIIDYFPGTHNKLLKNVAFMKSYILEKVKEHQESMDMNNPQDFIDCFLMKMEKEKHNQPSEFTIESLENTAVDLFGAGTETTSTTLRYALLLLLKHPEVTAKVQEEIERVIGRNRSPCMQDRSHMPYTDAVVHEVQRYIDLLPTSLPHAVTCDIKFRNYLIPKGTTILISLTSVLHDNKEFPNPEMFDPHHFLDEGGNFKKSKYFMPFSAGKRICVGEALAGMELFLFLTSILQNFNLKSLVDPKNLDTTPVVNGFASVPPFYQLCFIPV
CYP1A2, sequence (P05177 whole entry): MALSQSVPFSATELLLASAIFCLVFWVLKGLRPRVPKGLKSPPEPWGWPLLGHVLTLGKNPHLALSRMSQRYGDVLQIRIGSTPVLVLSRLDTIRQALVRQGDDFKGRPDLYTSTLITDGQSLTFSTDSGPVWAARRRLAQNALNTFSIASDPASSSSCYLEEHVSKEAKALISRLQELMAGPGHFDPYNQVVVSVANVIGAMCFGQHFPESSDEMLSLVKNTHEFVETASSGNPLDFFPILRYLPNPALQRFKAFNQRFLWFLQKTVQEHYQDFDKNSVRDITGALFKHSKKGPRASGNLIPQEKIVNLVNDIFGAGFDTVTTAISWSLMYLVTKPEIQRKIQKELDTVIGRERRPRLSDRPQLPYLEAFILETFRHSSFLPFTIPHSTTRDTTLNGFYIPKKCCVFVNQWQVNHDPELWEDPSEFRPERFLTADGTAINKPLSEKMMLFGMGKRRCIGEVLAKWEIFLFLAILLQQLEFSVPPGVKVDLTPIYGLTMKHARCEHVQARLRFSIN
CYP2D6, sequence (P10635 whole entry): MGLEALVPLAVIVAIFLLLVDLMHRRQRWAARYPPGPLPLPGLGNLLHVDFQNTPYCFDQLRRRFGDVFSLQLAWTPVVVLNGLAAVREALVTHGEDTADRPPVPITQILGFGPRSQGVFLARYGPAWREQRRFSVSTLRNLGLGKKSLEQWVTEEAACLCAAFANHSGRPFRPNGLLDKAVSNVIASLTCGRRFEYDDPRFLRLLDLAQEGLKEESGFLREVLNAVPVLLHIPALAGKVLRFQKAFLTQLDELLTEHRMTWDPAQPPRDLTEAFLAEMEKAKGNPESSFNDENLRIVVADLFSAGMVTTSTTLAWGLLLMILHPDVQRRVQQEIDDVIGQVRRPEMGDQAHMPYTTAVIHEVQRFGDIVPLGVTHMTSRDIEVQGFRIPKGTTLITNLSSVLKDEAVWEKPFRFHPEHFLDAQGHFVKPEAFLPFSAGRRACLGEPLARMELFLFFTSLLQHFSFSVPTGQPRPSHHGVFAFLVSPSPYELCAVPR
CYP3A, sequence (P08684 2-503): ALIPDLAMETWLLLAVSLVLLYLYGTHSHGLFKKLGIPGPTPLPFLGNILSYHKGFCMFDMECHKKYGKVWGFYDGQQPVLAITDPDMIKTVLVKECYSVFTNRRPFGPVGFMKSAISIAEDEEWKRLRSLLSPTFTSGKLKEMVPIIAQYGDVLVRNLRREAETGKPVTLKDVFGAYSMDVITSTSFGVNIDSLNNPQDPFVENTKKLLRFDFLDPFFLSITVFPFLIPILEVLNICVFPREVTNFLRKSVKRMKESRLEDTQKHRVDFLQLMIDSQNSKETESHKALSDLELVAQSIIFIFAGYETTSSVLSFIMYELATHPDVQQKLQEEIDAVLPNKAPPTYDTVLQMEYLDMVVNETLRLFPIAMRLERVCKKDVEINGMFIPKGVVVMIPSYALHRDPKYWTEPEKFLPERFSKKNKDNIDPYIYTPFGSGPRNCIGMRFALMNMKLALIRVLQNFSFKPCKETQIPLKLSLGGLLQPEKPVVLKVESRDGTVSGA

In the case of `O=C1Nc2c(O)cc(Cl)cc2[C@@](C#CC2CC2)(C(F)(F)F)O1` [8-hydroxyefavirenz], the “inhibition of CYP1A2” value at CYP1A2 (8-hydroxyefavirenz up to 10 μM (0.5 to 10 μM), pooled HLMs 1 mg/ml, 30 min) is given as ~ 20%.

With `COc1ccc2[nH]c([S+]([O-])Cc3ncc(C)c(OC)c3C)nc2c1` (stereo not shown) [Omeprazole], on CYP2C19 [1], the fm is 0.87 [26]).

As for `O=C1NC(=O)C(c2ccccc2)(c2ccccc2)N1` [Phenytoin], the fm at CYP2C9 [2] was 0.90 [57]). The “Predicted AUC Ratio” value on CYP2C9 [3] is on record as 1.7 -2.0.

Turning to `CC(=O)C[C@@H](c1ccccc1)c1c(O)c2ccccc2oc1=O` [S-Warfarin], at CYP2C9 [3], the “Predicted AUC Ratio” value is 1.7 -2.0.

As to `CC(NC(C)(C)C)C(=O)c1cccc(Cl)c1` (stereo not shown) [bupropion], the Km in the series on CYP2B6 [4] (bupropion as CYP2B6 substrate) is 90 to 130 µM.

Regarding `O=C1Nc2ccc(Cl)cc2[C@@](C#CC2CC2)(C(F)(F)F)O1` [efavirenz, Efavirenz], the values for the inhibition at 50 μM against CYP3A, at CYP2A6 (10 μM) and against CYP2D6 (10 μM) were above 20%, below 10% and below 10%, respectively. Also, the Ki at CYP2C8 [5] came to 4.78 ± 2.24 µM; on CYP2C9 [8] it was 19.5 ± 2.78 µM; on CYP2C19 [12], 21.3 ± 2.57 µM; at expressed CYP2C8, 6.05 ± 2.86 µM; on CYP2C8 [17], 4.8 ± 0.35 µM. In addition, the inhibition at 10 μM against CYP2A6 and against CYP2D6 was below 10% throughout. Also, the inhibition model entry is recorded as “competitive” at expressed CYP2B6 [6]; “non-competitive” at CYP2C9 [8] (pooled HLMs, substrate tolbutamide); “competitive” at CYP2B6 [10] (CMV negative HLMs); “competitive” against CYP2B6 [10] (pooled HLMs); “competitive” against CYP2C19 [12] (pooled HLMs, substrate S-mephenytoin); “competitive” against expressed CYP2C8 (expressed CYP2C8, substrate amodiaquine). The inhibition model result against CYP2C8 [16] is “competitive”; on CYP2C8 [17] (HLMs with CYP2C8*3/*3, substrate amodiaquine) it was “competitive”. Besides, the IC50 was around 15 µM on CYP2C9 [7] and 4 µM in the series with CYP2C8 [15]. Moreover, the “time-dependent inhibition of CYP activity” value in [9] (preincubation for 30 min) was “only marginally inhibited”. In [9] (shorter preincubation times (5-15 min)), the time-dependent inactivation result is listed as “did not show any indication of time-dependent inactivation”. Further, the “inhibition of CYP1A2 activity” value against CYP1A2 (efavirenz 10 and 50 μM, pooled HLMs) is on record as “did not indicate that efavirenz inhibits CYP1A2 activity”. The compound further showed a Cmax in series [11] of 4.6 to 8.4 µM. Moreover, the “inhibition of UGT2B7” value in the series with UGT2B7 is “moderate inhibitor”. Moreover, the “KI value (time-dependent inhibition)” value at expressed CYP2B6 [13] was 30 µM. The “Ka absorption rate constant” value in [14] is 0.3 h⁻¹. Also, the Km in the series with CYP2B6 [4] is 13 to 20 µM.

The record behind these values is publication PMC4075192 (Drug metabolism and pharmacokinetics, 2013).
